Several values for one entry are separate records, joined by “and”; a condition that tells them apart may be missing. Identical values can stand only once.
Key:
[1] = Plasma total drug concentration in bleomycin model (LC-MS/MS); format: in vivo, mouse; conditions: 2 h after last dose, Day 19; MK-0429 200 mpk minipump, Nintedanib 60 mpk po qd; mean ± SE
Method: Mice at 12 ~ 13 weeks of age were randomized to 5 groups: saline, bleomycin instillation with vehicle (osmotic minipump), bleomycin instillation with MK-0429 treatment, bleomycin instillation with vehicle oral treatment, and bleomycin instillation with Nintedanib treatment. All mice were anaesthetized with isoflurane. Bleomycin was dosed by intra-tracheal (i.t) instillation in a volume of 50 µl, at a dose of 1unit /kg body weight. After instillation, mice were kept in a heads-up position for 2–5 min before putting into cages. MK-0429 (200 mg/kg) was administered by Osmotic pump from day 5 to day 14 and Nintedanib (60 mg/kg) was administered, p.o., q.d., for 14 days. Vehicle was dosed orally at 10 am daily from the day 5 to the end of the studies and dosing volume was 10 mL/kg. For plasma PK analysis, an aliquot of 50 μL plasma was spiked into a 96-well plate, and 200 μL of acetonitrile containing internal standard were added for protein precipitation. The mixture was vortexed, centrifuged at 4000 rpm for 20 min. 50 μL of supernatant were mixed with 200 μl H2O and the final solution were injected for LC–MS/MS analysis. The methods for quantitative analysis were developed on UPLC (Waters) chromatographic system equipped with an API4000 QTrap mass spectrometer (Applied Biosystems, Concord, Ontario, Canada). […]

[2] = system: bleomycin-induced lung fibrosis; experiment: Bleomycin-induced lung fibrosis mouse model; format: in vivo; conditions: BLM mice, Nintedanib 60 mpk po qd
Method: Adult male C57BL/6 mice (Taconic, Rensselaer, NY) were housed in a temperature and humidity-controlled facility with a 12 h light: 12-h dark cycle. Animals had ad libitum access to food (Purina Rodent Chow 5053, LabDiet, St. Louis, MO) and water. All procedures utilizing experimental animals were conducted in accordance with the Guide for the Care and Use of Laboratory Animals, and experimental procedures were reviewed and approved by the Institutional Animal Care and Use Committee at MRL, Kenilworth, NJ. For osmotic minipump implantation, TFA salt of MK-0429 was formulated in 50% DMSO/50% H2O at a concentration of 416 mg/mL. MK-0429 or vehicle solution were filled in minipumps (Alzet, # 1007D, flow rate 0.5 μL/h). Minipumps were placed in mice subcutaneously in a pocket on the back between the shoulder blades. A small incision was made and a subcutaneous pocket formed by blunt dissection. A sterile minipump was inserted into the subcutaneous pocket. The incision was closed with staples or non-absorbable suture or absorbable (subcuticular) suture. The minipumps were used for continuous drug delivery for 2 weeks. Mice at 12 ~ 13 weeks of age were randomized to 5 groups: saline, bleomycin instillation with vehicle (osmotic minipump), bleomycin instillation with MK-0429 treatment, bleomycin instillation with vehicle oral treatment, and bleomycin instillation with Nintedanib treatment. All mice were anaesthetized with isoflurane. Bleomycin was dosed by intra-tracheal (i.t) instillation in a volume of 50 µl, at a dose of 1unit /kg body weight. After instillation, mice were kept in a heads-up position for 2–5 min before putting into cages. MK-0429 (200 mg/kg) was administered by Osmotic pump from day 5 to day 14 and Nintedanib (60 mg/kg) was administered, p.o., q.d., for 14 days. Vehicle was dosed orally at 10 am daily from the day 5 to the end of the studies and dosing volume was 10 mL/kg. For plasma PK analysis, an aliquot of 50 μL plasma was spiked into a 96-well plate, and 200 μL of acetonitrile containing internal standard were added for protein precipitation. The mixture was vortexed, centrifuged at 4000 rpm for 20 min. 50 μL of supernatant were mixed with 200 μl H2O and the final solution were injected for LC–MS/MS analysis. The methods for quantitative analysis were developed on UPLC (Waters) chromatographic system equipped with an API4000 QTrap mass spectrometer (Applied Biosystems, Concord, Ontario, Canada). Analyst 1.5 software packages (Applied Biosystems) were used to control the LC–MS/MS system and data acquisition and processing. Upon completion of the study, animals were euthanized and tissues were collected for histological assessment. Lung tissues were perfused with 10% formalin, fixed for 24 h, and then paraffin embedded. Tissue sections were stained with hematoxylin & eosin (H&E) and Masson’s trichrome, subsequently evaluated under light microscope. The severity of histopathologic changes and fibrosis in the lung were graded as described previously by pathologists[51],[52]. Following deparaffinization and rehydration, each lung tissue section was processed to identify αSMA deposition by immunohistochemistry. The primary antibodies used were αSMA antibody from Sigma. The Aperio ScanScope XT Slide Scanner (Aperio Technologies) system was used to capture whole slide digital images with a 20 × objective. Digital images were managed using Aperio Spectrum. The positive stains were identified and quantified using a macro created from a color deconvolution algorithm (Aperio Technologies). Statistical analysis was performed by using One-way ANOVA followed by Tukey’s test.

[3] = system: IPF patient lung fibroblasts; experiment: TGFβ-induced αSMA high-content imaging; format: cell-based, human; conditions: TGFβ 5 ng/mL, 48 h, read-out: IC50 TGFβ-mediated αSMA induction
Method: (§1) Normal human lung fibroblasts (Lonza) and Primary Human IPF Lung Parenchymal Fibroblasts (Donor2) (BioIVT, #PCR-70-0214) were incubated at 37 °C and 5% CO2. To induce fibrotic response in primary cells, a final concentration of 5 ng/ml of recombinant human TGFβ1 (BioLegend, #580702) was added to the culture media and treated for 24 ~ 48 h. Anti-TGFβ neutralizing antibody (1D11) and the isotype control mouse IgG1 were from BioXcell. SB-525334 and bleomycin were from Sigma. MK-0429 was synthesized by Merck & Co., Inc., Kenilworth, NJ, USA. CHOK1-integrin stable lines were cultured in DMEM/F12, Glutamax (Gibco #10565018), 10% FBS (Gibco 310091148), 1 × Pen/Strep (Gibco 315140-148), and 6 ug/mL Puromycin (Gibco #A1113803).
(§2) Primary cells (passage 3–5) were grown on Cell carrier Ultra, col1 coated 96-well plates (Perkin Elmer, #6055700) at a density of 25,000 cells/well. Once the cells adhere, they were starved in serum free media for 24 h followed by addition of treatments i.e. 5 ng/mL TGFβ (Biolegend #580702) ± inhibitors. Cells were pre-treated with inhibitors for 30 min prior to the addition of TGFβ stimulation. 48hours post treatment, the cells were fixed in 4% methanol free paraformaldehyde (ThermoFisher Scientific #28908) for 20 min at room temperature and incubated with anti-alpha smooth muscle Actin antibody (Abcam #ab7817) at 1:4000 overnight at 4 °C. […]

[4] = system: normal human lung fibroblasts; experiment: TGFβ-induced αSMA high-content imaging; format: cell-based; conditions: 10 μM, 30 min pre-treatment, TGFβ 5 ng/mL, 48 h
Method: as §1, §2

[5] = treatment from day 5 for 14 days, MK-0429 200 mpk osmotic minipump, vs BLM-vehicle

| SMILES | Mean plasma total drug concentration [1] | TIMP-1 content in BALF ([2]; 14 days treatment, MK-0429 200 mpk minipump) | Modified Ashcroft score of mouse lung [2, 5] | Total inflammation area in mouse lungs [2, 5] | αSMA immunohistochemistry in lung [2, 5] | Body weight vs bleomycin group ([2]; MK-0429 200 mpk minipump) | IC50 [3] | αSMA intensity and percentage of stimulated cells following TGFβ treatment [4] |
| --- | --- | --- | --- | --- | --- | --- | --- | --- |
| COC(=O)c1ccc2c(c1)NC(=O)/C2=C(\Nc1ccc(N(C)C(=O)CN2CCN(C)CC2)cc1)c1ccccc1 [Nintedanib] | 656.1 ng/mL and 656 ± 229 ng/mL | significantly decreased | significantly improved | decreased | significantly decreased | no significant body weight difference | – | – |
| Cc1cccc(-c2[nH]c(C(C)(C)C)nc2-c2ccc3nccnc3c2)n1 [SB-525334] | – | – | – | – | – | – | 0.056 ± 0.022 µM | significantly reduced |
